These results are taken from patent US6610324B2, “Flupirtine in the treatment of fibromyalgia and related conditions” (The McLean Hospital Corporation, priority 1999, dated 2003).

The conditions of data set [1]: in some, but not all, studies; cited from earlier work.
The conditions of data set [2]: cited from earlier work.
For data set [3], the system named is patients with fibromyalgia. The data set can be described thus: Flupirtine treatment of patients with fibromyalgia. The format is in vivo. An excerpt: Flupirtine is an analgesic that has been used in Europe to treat the pain associated with surgery, cancer, trauma, and liver disease. It acts via the central nervous system through non-opite pain pathways, possibly involving the thalamus or spinal pain pathways.

With `CCOC(=O)Nc1ccc(NCc2ccc(F)cc2)nc1N` [flupirtine, 2-amino-3-carbethoxyamino-6-(4-fluorobenzylamino)-pyridine], in data set [1], the “effectiveness in relieving pain compared with opiates” value is listed as “as effective as opiates”. For the same compound, the withdrawal symptoms entry in data set [2] (abrupt discontinuation of administration) is reported as “does not produce withdrawal symptoms”. For the same compound, the sedation result in data set [2] (compared with opiate drugs) is “less sedating than opiate drugs”. In data set [2] (compared with opiates, no reports of abuse), the addiction and abuse result is given as “not addictive”. Further, the “tolerance to analgesic effects” value in data set [2] (human, in vivo) was “do not acquire a tolerance”. In addition, the reported side effects entry in data set [2] (relatively safe at dosages lower than 600 mg per day) is “dizziness, drowsiness, pruritus, dry mouth, and, less frequently, nausea, depression, sleep disturbance, and headache”. In data set [2] (unlike opiates), the cardiovascular side effects entry is recorded as “not associated with cardiovascular side effects” and the muscle relaxant properties entry is recorded as “exhibits muscle relaxant properties”. In addition, the “analgesic action compared with opiates” value in data set [3] (patients with fibromyalgia and related conditions) is “roughly comparable to the effect produced by opiates”. The “effect on chronic and severe body pain” value in data set [3] (some patients with fibromyalgia, also where high doses of opiates, NSAIDs and placquenil fail) was “completely eliminating the chronic and severe body pain”.
